# Assay results: patent publication US5189044A, “Isoquinoline-1,3-dione acetyl carbamates useful as aldose reductase inhibitors” (American Home Products Corporation, priority 1992, dated 1993)
# Columns and labels:
# aldose reductase = conditions: 10^-5 M; aldose reductase from bovine lens
# Experimental: (c) The polyol determination was performed by a modification of the procedure of M. Kraml and L. Cosyns, Clin. Biochem., 2,373 (1969). Only two minor reagent changes were made: (a) The rinsing mixture was an aqueous 5% (w/v) trichloroacetic acid solution and (b) the stock solution was prepared by dissolving 25 mg of dulcitol in 100 ml of an aqueous trichloroacetic acid solution. [N.B.: For each experiment the average value found in the tissue from rats fed the glucose diet was subtracted from the individual values found in the corresponding tissue in galactose-fed rats to obtain the amount of polyol accumulated.] […] In the present case the procedure of Hayman and Kinoshita was modified in that the final chromatography step was omitted in the preparation of the enzyme from bovine lens.
# [1] = tested on: dulcitol accumulation in the sciatic nerve; test: galactosemic rats, dulcitol (galactitol) accumulation in sciatic nerve; assay type: in vivo, rat (Sprague-Dawley); conditions: 4 days, vs untreated galactosemic rats
# Description: (§1) The aldose reductase inhibiting property of the compounds of this invention and the utilization of the compounds in preventing, diminishing and alleviating diabetic complications are demonstrable in experiments using galactosemic rats, see Dvornik et al., Science, 182, 1146 (1973). Such experiments are exemplified hereinbelow after the listing of the following general comments pertaining to these experiments:
# (§2) (a) Four or more groups of six male rats, 50-70 g, Sprague-Dawley strain, were used. The first group, the control group, was fed a mixture of laboratory chow (Rodent Laboratory Chow, Purina) and glucose at 20% (w/w %) concentration. The untreated galactosemic group was fed a similar diet in which galactose is substituted for glucose. The third group was fed a diet prepared by mixing a given amount of the test compound with the galactose containing diet. The concentration of the galactose in the diet of the treated groups was the same as that for the untreated galactosemic group.
# (§3) (b) After four days, the animals were killed by euthanization. The lenses were removed from the eyes and weighed. The sciatic nerves were dissected as completely as possible and weighed. Both tissues when frozen can be kept up to two weeks before being analyzed for dulcitol.
# (§4) The figures under N and D represent the percentage decrease of dulcitol accumulation in the tissues of the sciatic nerve and diaphragm, respectively, for treated rats as compared to untreated rats.
# [2] = tested on: dulcitol accumulation in the diaphragm; test: galactosemic rats, dulcitol (galactitol) accumulation in diaphragm; assay type: in vivo, rat (Sprague-Dawley); conditions: 4 days, vs untreated galactosemic rats
# Description: as §1, §2, §3, §4
% Inhibition in vitro (aldose reductase),SMILES,"% Lowering Galacitol Accumulation in Vivo, Sciatic Nerve ([1]; 49.3 mg/kg/day in diet)","% Lowering Galacitol Accumulation in Vivo, Sciatic Nerve ([1]; 93.6 mg/kg/day in diet)","% Lowering Galacitol Accumulation in Vivo, Diaphragm ([2]; 49.3 mg/kg/day in diet)","% Lowering Galacitol Accumulation in Vivo, Diaphragm ([2]; 93.6 mg/kg/day in diet)","% Lowering Galacitol Accumulation in Vivo, Sciatic Nerve ([1]; 48.8 mg/kg/day in diet)","% Lowering Galacitol Accumulation in Vivo, Sciatic Nerve ([1]; 96.6 mg/kg/day in diet)","% Lowering Galacitol Accumulation in Vivo, Diaphragm ([2]; 48.8 mg/kg/day in diet)","% Lowering Galacitol Accumulation in Vivo, Diaphragm ([2]; 96.6 mg/kg/day in diet)"
83%,COC(=O)NC(=O)CC1C(=O)N(Cc2nc3cc(C(F)(F)F)ccc3s2)C(=O)c2ccc(F)cc21 (stereo not shown) [F],39%,59%,74%,81%,,,,
95%,COC(=O)NC(=O)CC1C(=O)N(Cc2nc3cc(C(F)(F)F)ccc3s2)C(=O)c2ccccc21 (stereo not shown) [H],,,,,61%,73%,81%,87%
